Laboratory results: patent US6482410B1, “Cytotactin derivatives that stimulate attachment and neurite outgrowth, and methods of making same” (The Scripps Research Institute, priority 1994, dated 2002)
One block for each molecule: values may come before it.

How the values were obtained:
[1] = molecular target: β1 integrin on chicken SL29 fibroblasts and chick dorsal root ganglion neurons (chicken) (UniProt P07228); assay: cell-based or functional assay
[2] = system: neurons from chick forebrain; assay: CNS neurite outgrowth, forebrain neurons, 7 hours; format: cell-based; conditions: 7 hour growth period
Method: (§1) Dorsal root ganglia (DRG) cells or forebrain neurons were prepared for the cell attachment assays as follows. DRG from day 6 chicken embryos or forebrains from day 7 chicken embryos were dissected into HBSS. The tissue was pelleted by centrifugation and resuspended in CMF-HBSS and incubated at 37° C. for 10 minutes. The tissue was pelleted again and resuspended in CMF-HBSS containing 0.08% trypsin and allowed to trypsinize for 20 minutes at 37° C. An equal volume of DMEM/F12, 10% FCS, 20 ng/ml nerve growth factor (NGF) (for DRG cells only), 10 μg/ml gentamycin (10% medium) was added, and the tissue was pelleted and resuspended in 2 ml of the 10% medium. The cells were triturated with a fire-polished Pasteur pipette for 15 strokes, and the cells were washed and resuspended in 10 ml of 10% medium. DRG cells were plated in a 10 cm tissue culture dish and incubated for 1 hour at 37° C. in 5% CO2, to allow for attachment of contaminating fibroblasts.
(§2) After replating, the cells were harvested, pelleted and washed three times in DMEM/F12, 1% fetal calf serum (FCS), 20 ng/ml NGF (for DRG cells only), 10 μg/ml gentamycin (1% medium), and the number of cells determined using a hemocytometer. The DRG were resuspended to a density of 6×10^5 cells/ml in attachment buffer. The neurons were resuspended to a density of 2×10^4 cells/ml in 1% medium and added to substrates and placed at 37° C., 5% CO2 for 15 hours.
(§3) After the growth period, the dishes were gently rinsed with PBS to remove unbound cells, fixed with 1% glutaraldehyde, and viewed by phase contrast microscopy. Ten to forty cells were analyzed for each substrate. Cells were judged as neurite-bearing if the length of the processes was greater than one cell diameter. All cells with neurites were photographed with a 20× objective and total neurite length per neurite-bearing cell was derived from the photographic prints. Percentage of neuronal sprouting was calculated from at least six experiments. Neurite length was calculated from at least three experiments.
To investigate whether CNS neurons could also extend neurites on CT/TN and CT/TN fragments, neurons from chick forebrain were plated at low density on CT/TN, CT/TN fragments and polylysine, and analyzed for neurite outgrowth after a 7 hour growth period (a time period found to be optimal for stable neurite outgrowth from these cells). The lengths of neurites on substrates that supported sprouting were essentially the same for the forebrain neurons and were therefore not quantitated further.

[3] = system: dorsal root ganglia (DRG) neurons; assay: Two-dimensional neurite outgrowth assay, DRG, 15 hours; format: cell-based, chicken; conditions: 15 hours
Method: as §1, §2, §3
This extensive neurite outgrowth after 40 hours made quantitation of the percentage of neurite-bearing cells and neurite length difficult. To analyze quantitatively the effect of CT/TN fusion proteins on DRG neurite outgrowth, DRG cells were therefore plated at low density on CT/TN or CT/TN fragments and analyzed after 15 hours in culture for the percentage of cells that sprouted neurites greater than one cell diameter and for the everage neurite length per neuron. These conditions enhanced the number of isolated cells and discouraged the cell-cell interactions and fasciculation that occurred in the long-term cultures.
The proteins used in the neurite outgrowth assays are the same as those used in the cell attachment assays. […] In addition, poly-L-lysine was adsorbed to the solid support. […] Any cells adhering to the solid support were examined for sprouting and neurite length as defined herein.
Proteins used in the neurite outgrowth assays were prepared as described in Example 5.A.2.
Dorsal root ganglia (DRG) from day 6 chicken embryos were prepared as described in Example 5.A.4. For the neurite outgrowth assays, the DRG were resuspended at a density of 2×10^4 cells/ml in 1% medium, added to solid support, and placed at 37° C. in 5% CO2 for 15 hours. After the attachment and growth period, the dishes were gently rinsed with PBS to remove unbound cells, fixed with 1% (v/v) glutaraldehyde, and viewed by phase contrast microscopy. Ten to thirty cells were analyzed for each adsorbed protein spot. Cells were judged as neurite-bearing if the length of the processes were greater than one cell diameter. All cells with neurites were photographed with a 40× objective and the total neurite length per neurite-bearing cell was derived from the prints. The percent of cells that were sprouting and the average neurite length was derived from six and three independent experiments, respectively. […]

[4] = system: chicken fibroblast cell line SL29; assay: Cell attachment assay, fibroblasts on protein-coated solid support; format: cell-based; conditions: CT coated at 20 μg/ml, binding fragments at 0.75 μM, non-binding at three times that, 1 hour
Method: In the cell attachment assays, a single cell suspension was allowed to settle for a fixed period of time onto a solid support that has been coated with the different CT-derived proteins to be tested for cell attachment (Friedlander, et al., J. Cell Biol. 107: 2329-2340 (1988)). After removing the unbound and loosely bound cells by washing, the attachment and morphology of those cells remaining on the dish were analyzed.
Solid supports, consisting of a circular array of CT or CT:GST fusion proteins bound to a dish, were prepared as follows for the cell attachment assay.
For the initial study, non tissue-culture treated polystyrene plates (Falcon 1008) were spotted with 2 μl of a 0.5 to 1.5 μM solution of CT in PBS for 30 minutes to coat a specific area on the dish with CT. CT was isolated from chicken brain or from fibroblast culture supernatant as described in Crossin, PNAS 88: 11403-11407 (1991) and Hoffman et al., J. Cell Biol. 106: 519-532 (1988). CT was placed in a circular array near the center of the dish and incubated at 37° C. for 30 minutes. After CT had adsorbed to the dish, the central portion of the dish was washed once with 250 μl of 20% (w/v) BSA in PBS. Non-specific binding sites on the dish were then blocked with 250 μl of 20% (w/v) BSA in PBS by incubation for 2 to 3 hours at room temperature.
For the subsequent study with the CT:GST fusion proteins, non tissue-culture treated polystyrene plates (Falcon 1008) were spotted with 2 μl of a 0.5 to 1.5 μM solution of CT:GST fusion protein in PBS as prepared in Example 5.A.2 or GST in PBS for 30 minutes to coat a specific area on the dish with CT:GST fusion protein or GST. The proteins to be tested were placed in a circular array near the center of the dish and incubated at 37° C. for 30 minutes. After the proteins adsorbed to the dish, the central portion of the dish was washed once with 250 μl of 20% (w/v) BSA in PBS. Non-specific binding sites on the dish were then blocked with 250 μl of 20% (w/v) BSA in PBS by incubation for 2 to 3 hours at room temperature.
The chicken fibroblast cell line SL29 (ATCC CRL 1590) was grown to confluence in Dulbecco's Minimum Essential Medium (DMEM; Gibco-BRL, Gaithersburg, Mass.) with 10% (v/v) fetal calf serum (FCS; Gibco-BRL) with penicillin and streptomycin. The cells were passaged the night prior to the assay and seeded at a density of 1:2. Cells were harvested in calcium, magnesium-free Hank's balanced salt solution (CMF-HBSS, Gibco-BRL) with 20 mM Hepes buffer and 5 mM EDTA. Harvested cells were washed in attachment buffer (CMF-HBSS with 10 mM Hepes, 1 mM CaCl2, 1 mM MgCl2, 0.1 mM MnCl2, and 2% (w/v) bovine serum albumin (BSA)) three times. The number of cells was quantitated by counting the cells in a hemocytometer. The cells were resuspended in attachment buffer to a density of 6×10^5 cells/ml.
Chicken fibroblasts, DRG, and solid supports (dishes) coated with CT for use in the cell attachment assays were prepared as described in Examples 5.A.2-4, respectively. The chicken fibroblasts and DRG at a density of 6×10^5 cells/ml were added to the prepared dishes and incubated at 37° C. in 5% CO2 for 1 hour. The dishes were then washed three times in PBS with gentle swirling to remove unattached cells, fixed in 1% glutaraldehyde in PBS, and viewed by phase contrast microscopy. The number of bound cells was determined using a 10× objective with an eyepiece reticle. The number of cells was determined in four fields for each fusion protein dot as the number of cells bound per […]. CT was tested in triplicate. The number of cells bound for CT was expressed as the average of the twelve measurements±standard deviation […].
CT, coated at a concentration of 20 μg/ml, was used as a solid support for SL29 fibroblast attachment. […] Fragments of CT were generated using the pGEX fusion protein system, as described in Example 1. The cell attachment assay was performed essentially as described above for the cell attachment assay to intact CT. […]

[5] = molecular target: integrin receptor mediating RGD-dependent, not β1 integrin-mediated attachment of chicken SL29 fibroblasts and DRG cells; assay: cell-based or functional assay
DRG cells = assay: DRG neurite outgrowth, 40 hour culture, morphology; format: cell-based, chicken; conditions: DRG cells cultured 40 hours
Method: In order to assess the effect to the cell binding regions of CT/TN on the outgrowth of neurites from PNS neurons, DRG cells were cultured for 40 hours on popylysine, CTfn3, CTfn6, CTfg, and CTfn3-CTfn6 mixed substrates. The cultures were then fixed and the cell and neurite morphology was analyzed by phase contrast microscopy. The cells were plated on plastic substrates coated with the same concentrations of CTITN and fusion proteins used in the attachment assay.

UniProt P07228, sequence (P07228 25-803, form in doubt): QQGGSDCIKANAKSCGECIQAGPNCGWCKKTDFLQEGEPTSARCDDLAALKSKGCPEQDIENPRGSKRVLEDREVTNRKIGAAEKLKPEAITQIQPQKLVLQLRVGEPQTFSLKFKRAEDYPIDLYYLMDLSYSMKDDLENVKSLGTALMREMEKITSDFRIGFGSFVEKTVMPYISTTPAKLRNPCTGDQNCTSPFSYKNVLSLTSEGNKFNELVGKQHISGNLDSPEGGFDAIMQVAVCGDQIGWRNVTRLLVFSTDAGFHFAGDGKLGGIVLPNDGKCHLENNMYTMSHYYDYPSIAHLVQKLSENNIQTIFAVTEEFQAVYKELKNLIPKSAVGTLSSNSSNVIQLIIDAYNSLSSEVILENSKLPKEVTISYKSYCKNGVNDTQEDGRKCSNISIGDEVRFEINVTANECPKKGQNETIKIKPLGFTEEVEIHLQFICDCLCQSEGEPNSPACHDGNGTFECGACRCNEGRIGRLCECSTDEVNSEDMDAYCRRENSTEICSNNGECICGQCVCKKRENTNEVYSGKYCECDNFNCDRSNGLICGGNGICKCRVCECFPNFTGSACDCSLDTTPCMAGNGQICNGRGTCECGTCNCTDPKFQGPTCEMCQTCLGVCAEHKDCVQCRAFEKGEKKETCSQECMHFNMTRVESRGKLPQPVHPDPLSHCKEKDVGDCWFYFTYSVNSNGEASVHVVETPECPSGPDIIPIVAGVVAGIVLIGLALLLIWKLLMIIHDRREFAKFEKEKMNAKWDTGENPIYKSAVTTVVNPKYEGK

Molecule: CTfg CT:GST fusion protein (fibrinogen domain of chicken cytotactin fused to GST) (from UniProt P10039 1568-1808)
- decrease in DRG cell attachment to CTfg after preincubation with JG22 [1]: 19%

Molecule: CT: intact cytotactin isolated from chicken brain or fibroblast culture supernatant
- forebrain cell attachment [2]: low level of attachment
- forebrain neuron sprouting versus polylysine [2]: did not support sprouting of neurites
- % Sprouting ([2]; Table 4, FB (forebrain) neurons): 0%
- percentage of DRG cells that sprouted neurites ([3]; DRG): About 50%
- percentage of DRG cells that sprouted neurites ([3]; DRG, listed as CT/TN): 30%
- % Sprouting ([3]; Table 4, DRG, neurites greater than one cell diameter): 30 ± 3 %
- Neurite Length ([3]; Table 4, DRG, per neurite-bearing cell): 332 ± 177 microns
- Percent Sprouting ([3]; Table 5, DRG, six experiments): 30 ± 3
- Neurite Length (in microns) ([3]; Table 5, DRG, three experiments): 332 ± 177 microns
- SL29 fibroblast attachment to coated substrate (words) [4]: readily attached
- SL29 fibroblast attachment to coated substrate (words) ([4]; listed as CT/TN): bound well

B1: CTfn3-6: single construct containing fibronectin type III repeats III and VI, SEQ ID NO 29 (protein, listed as Gallus gallus)
chain: LDAPSQIEAKDVTDTTALITWSKPLAEIEGIELTYGPKDVPGDRTTIDLSEDENQYSIGNLRPHTEYEYEVTLISRRGDMESDPAKEVFVTVVGSPKGISFSDITENSARVSWTPPRSRVDSYRVSYVPITGGTPNVVTVDGSKTRTKLVKLVPGVDYNVNIISVKGFEESE
- neurite promoting activity on DRG cells ([3]; DRG, low density): significant increase both in the percentage of neurite-bearing cells and in neurite elongation
- neurite and cell morphology after 40 hours (DRG cells): much longer and less fasciculated

Results, then the molecule that gave them:

- inhibition of SL29 fibroblast attachment to intact CT/TN by GRGDTP (1 mg/ml) [5]: 33%
- inhibition of cell attachment to intact CT by soluble GRGDSP (1 mg/ml) [5]: 73%
- inhibition of cell attachment to intact CT by soluble GRGDTP (1 mg/ml) [5]: 70%
Molecule: intact cytotactin (CT) isolated from chicken brain or from fibroblast culture supernatant (from UniProt P10039 34-1808) (ligand)

- inhibition of SL29 fibroblast binding to CTfn5-6 by mAb JG22 [1]: 77%
Molecule: CTfn5-6 fusion protein spanning the fifth and sixth FN type III repeats of chicken cytotactin (from UniProt P08515 1-218)
